From US5506217A, “Phosphonates as anti-cancer agents” (The University of British Columbia, priority 1994, dated 1996)
pIC50: −log10 of the molar value.

Assays:
[1] = test system: human colorectal cell line (HT-29); assay: HT-29 tumor growth in nude mice; assay type: in vivo; conditions: orally once a day, 5 mg/Kg body weight; HT-29 subcutaneous in nude mice
Description: Studies were also performed with nude mice injected with the human colorectal cell line (HT-29) subcutaneously.

[2] = body weight and general toxicity in the B-16/F10 melanoma study; assay type: in vivo, C57BL/6 mice; conditions: for Body weight (grams): 10 mg/kg IM (5 days/week for 2 weeks)
Description: Highly metastatic B-16/F10 melanoma cells were injected into the tail veins of female C57BL/6 mice (1×10^5 cells per mouse). Treatment of one group of mice with the phosphonate compound of the above formula (compound VIII), dissolved into 0.5mL ethanol, 0.5 mL cremaphor and 9.0 mL phosphate buffered saline, began three days after the tumor cells were injected. lntramuscular injections of 0.2 mL of the phosphonate emulsion (10 mg/kg/day) were given for 5 days per week for 2 weeks. A second group of mice were treated with Adriamycin (10 mg/kg given intravenously on days 0, 4 and 8) as a known anti-cancer drug control group, while a third group of mice received the vehicle emulsion alone. The mice were examined every day for general health, behaviour and body weight. Counts of metastatic melanomic tumor colonies found in the lungs, general observations of metastasis to distant organs and examination of organs (liver, kidneys, lungs and spleen) were taken at autopsy 4 weeks after treatment.

[3] = test system: HCT-116 (human rectal cancer); assay: cytotoxicity IC50 (3H-thymidine uptake, colonogenic cell survival and MTT assays); assay type: cell-based
Excerpt: (§1) A combination of ^3 H-Thymidine incorporation assay, colonogenic cell survival assay and MTT assay was used to determine cytotoxicity data of phosphonates in several mouse and human tumor cell lines.

[4] = test system: RPMI (advanced human melanoma); assay: as above; assay type: cell-based
Excerpt: as §1

[5] = test system: LLC (mouse Lewis lung carcinoma); assay: as above; assay type: cell-based
Excerpt: as §1

[6] = test system: L1210 (mouse B-cell lymphoma); assay: as above; assay type: cell-based
Excerpt: as §1

[7] = test system: P388 DR (drug resistant P388); assay: as above; assay type: cell-based; conditions: Mus musculus
Excerpt: as §1

## CCCCCCCCCCCCCCCCOCC(CCP(=O)([O-])OCC[N+](C)(C)C)OC (stereo not shown) [compound VIII]
[1]
  retardation of tumor growth: 30-40%
[2]; Mouse 1, day 0
  Body weight (grams): 19 grams
[2]; Mouse 1, day 12
  Body weight (grams): 20 grams
[2]; Mouse 1, day 26
  Body weight (grams): 23 grams
[2]; Mouse 2, day 0
  Body weight (grams): 19 grams
[2]; Mouse 2, day 12
  Body weight (grams): 20 grams
[2]; Mouse 2, day 26
  Body weight (grams): 22 grams
[2]; Mouse 3, day 0
  Body weight (grams): 19 grams
[2]; Mouse 3, day 12
  Body weight (grams): 21 grams
[2]; Mouse 3, day 26
  Body weight (grams): 24 grams
[2]; Mouse 4, day 0
  Body weight (grams): 20 grams
[2]; Mouse 4, day 12
  Body weight (grams): 21 grams
[2]; Mouse 4, day 26
  Body weight (grams): 25 grams
[2]; Mouse 5, day 0
  Body weight (grams): 19 grams
[2]; Mouse 5, day 12
  Body weight (grams): 21 grams
[2]; Mouse 5, day 26
  Body weight (grams): 24 grams
[2]; Mouse 6, day 0
  Body weight (grams): 20 grams
[2]; Mouse 6, day 12
  Body weight (grams): 21 grams
[2]; Mouse 6, day 26
  Body weight (grams): 24 grams
[2]; intramuscularly, 10 mg/kg for 2 weeks
  toxicity (weight, behaviour and appearance of the mice; in words): not toxic
[3]
  pIC50: 4.92
[4]
  pIC50: 5.05
[5]
  pIC50: 4.97
[6]
  pIC50: 5.30
[7]
  pIC50: 5.30
